These results are taken from the NIST ThermoML archive (doi:10.1021/acs.jced.7b00489).

The conditions of this data set: Crystal; DSC.

± gives the expanded uncertainty stated by the source.

On to `O=C(c1cc(Cc2n[nH]c(=O)c3ccccc23)ccc1F)N1CCN(C(=O)C2CC2)CC1` [olaparib], for which the Triple point temperature worked out at 471.65 ± 1.8 K.
